# Assay results: patent US10286038B2, “Lysosome membrane protein 2 (LIMP-2) based peptides and related uses” (Northwestern University, priority 2016, dated 2019)
# Key:
# [1] = biological target: bovine serum albumin (BSA) (Bos taurus, UniProt P02769); test: peptide pulldown of albumin (BSA); assay type: binding; details: neutral pH
# Procedure: FIG. 6: Characterization of a helical LIMP-2-derived peptide. […] B) In vitro peptide pulldown assay: helix 5 peptides were incubated with recombinant LAMAN and bovine serum albumin (BSA). INPUT and BOUND fractions were loaded onto SDS-PAGE and proteins visualized by coomassie staining (CBB). C) Densitometry of LAMAN and BSA protein bound to peptide, normalized to protein fraction bound to beads only (buffer; n=2-3). D) and E) Activity assay of recombinant (D) GC and (E) LAMAN incubated with different excess molarities (1×-10×) of helix 5 peptide (n=β-5) and LIMP-2 ectodomain (n=4). GC activities were normalized and statistical analyses compared to 0 input of BSA/helix 5 peptide. F) Peptide-pulldown of GC constructs overexpressed in N2a cells with subsequent Western blot analysis (α-hGC) utilizing helix 5 and the 3×D control peptide as a negative binding control. G) Densitometry of GC protein bound to peptides; each construct is normalized to buffer only. H) Live-cell lysosomal GC activity of H4 cells after uptake of helix 5 and 3×D TAT peptides. GC activity was measures every 30 minutes up to 3.5 hours. Cells were treated with DMSO or the “lysosomal inhibitor” bafilomycinA1. […] Lysosomal activity is calculated by subtracting the AUC of DMSO with the AUC of bafilomycinA1 treated samples (n=4). […] GC activity was measured from 16-74 hours and is shown in mU/mg (n=3). […]
# [2] = tested on: endogenous and overexpressed GC in cell lysates; details: after incubation with peptide
# Procedure: The artificial substrates were dissolved in sodium citrate buffer (0.2 M Na-citrate, 0.4% BSA, pH 4.6). All activity assays were performed at acid pH.
# Cell lysate protein (20-200 μg) or recombinant protein (0.2 nmol GC/N370S or LAMAN) was incubated with 100 μL of 10 mM artificial absorbent substrate (4-nitrophenyl β-D-glucopyranoside or 4-nitrophenyl-N-acetyl-β-D-glucosaminide). The samples were incubated at 37° C. for 2 h to measure GC activity or for 5 h to assess LAMAN activity. The reaction was stopped by applying 500-1,000 μL of stop solution (0.4 M glycine, pH 10.4), and the absorbance was measured in a clear 96-well plate at 405 nm in a plate reader (Synergy HT; BioTek). Enzyme activities of cellular lysates were normalized to protein concentration (expressed in milliunits per milligram) and are shown relative to buffer control. Enzyme activities of recombinant proteins are shown as milliunits per milligram or are stated relative to buffer control.
# [3] = biological target: T1, lysosomal GC of living H4 cells (Homo sapiens, UniProt P04062); test: live-cell lysosomal GC activity assay in H4 cells; assay type: cell-based; details: 10 μM TAT peptide, relative to buffer control
# T1 construct: Lysosomal GC activity of living H4 cells measured in vivo after incubation with uptake-optimized TAT-peptides; endogenous in cells; host or cells: H4 human neuroglioma cells (for the 74 h course: stably overexpressing α-synuclein)
# T1 sequence (P04062 40-536): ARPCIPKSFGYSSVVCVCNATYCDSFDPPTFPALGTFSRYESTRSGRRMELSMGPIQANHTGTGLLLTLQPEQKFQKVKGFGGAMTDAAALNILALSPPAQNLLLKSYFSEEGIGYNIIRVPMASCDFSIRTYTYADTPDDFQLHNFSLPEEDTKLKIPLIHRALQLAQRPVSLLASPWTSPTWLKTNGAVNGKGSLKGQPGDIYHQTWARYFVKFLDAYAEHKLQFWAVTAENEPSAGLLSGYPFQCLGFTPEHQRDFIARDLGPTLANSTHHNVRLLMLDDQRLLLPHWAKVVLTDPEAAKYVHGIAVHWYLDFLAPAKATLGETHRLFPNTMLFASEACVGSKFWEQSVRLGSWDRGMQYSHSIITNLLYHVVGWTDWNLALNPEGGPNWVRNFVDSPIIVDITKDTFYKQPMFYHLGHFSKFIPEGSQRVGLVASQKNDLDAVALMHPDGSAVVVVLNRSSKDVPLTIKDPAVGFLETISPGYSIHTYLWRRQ
# Procedure: Lysosomal GC activity in living cells was assessed by applying a drug-response assay in the presence and absence of a lysosomal inhibitor (bafilomycin A1; Invivogen) dissolved in DMSO (24). TAT peptides (10 μM) were added to the cell medium for 1 h; then H4 cells (see Table 5) were incubated with 100 μg/mL cell-permeable artificial substrate 5-(pentafluorobenzoylamino) fluorescein di-β-D-glucopyranoside (PFB-FDGlu) (Life Technologies, Thermo Fisher Scientific) for another hour. Cells were washed with warm medium; then the medium was replaced with phenol red-free neurobasal medium (Life Technologies, Thermo Fisher Scientific). The fluorescence intensity was recorded every 30 min for β-4 h in a SpectraMax i3 plate reader (Molecular Devices) (PFB-FDGlu: excitation=485 nm, emission=530 nm). After the final reading, cells were fixed in 4% formaldehyde/PBS and were stained with CellTag 700 (LICOR Biosciences) according to the manufacturer's instructions to measure cell volume. The plate was scanned on an Odyssey infrared imager (LI-COR Biosciences). Fluorescence intensities were normalized to cell volume and graphed versus time. Whole-cell activity was obtained by calculating the area below the DMSO curve. Nonlysosomal activity corresponds to the area under the bafilomycin A1 curve. Lysosomal activity was obtained by subtracting both areas (FIG. 6H).
# Chain of bovine serum albumin (BSA) (P02769 25-607): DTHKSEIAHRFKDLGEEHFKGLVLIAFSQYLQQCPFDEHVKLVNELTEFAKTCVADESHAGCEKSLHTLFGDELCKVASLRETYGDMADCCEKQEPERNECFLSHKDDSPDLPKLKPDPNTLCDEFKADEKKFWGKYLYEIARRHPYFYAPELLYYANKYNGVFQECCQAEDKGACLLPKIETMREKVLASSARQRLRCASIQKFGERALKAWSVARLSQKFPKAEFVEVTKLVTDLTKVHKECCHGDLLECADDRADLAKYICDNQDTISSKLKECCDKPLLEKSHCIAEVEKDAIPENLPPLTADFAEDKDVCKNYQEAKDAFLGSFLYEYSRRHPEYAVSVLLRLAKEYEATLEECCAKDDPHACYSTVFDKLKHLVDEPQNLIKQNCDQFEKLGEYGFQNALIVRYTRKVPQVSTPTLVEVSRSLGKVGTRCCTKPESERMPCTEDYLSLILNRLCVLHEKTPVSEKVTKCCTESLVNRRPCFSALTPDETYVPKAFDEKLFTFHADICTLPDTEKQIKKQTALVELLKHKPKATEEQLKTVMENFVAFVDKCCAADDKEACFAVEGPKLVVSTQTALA
Substance,interaction with albumin (BSA) [1],enzymatic activity of endogenous and overexpressed GC in cell lysates [2],elevation of GC activity within lysosomes of living cells [3]
Biotin-Ttds-LREIIEAMLKAYQQKLFVTHTVDE [helix 5 peptide],no interaction,could also be increased,–
Biotin-Ttds-KFERQLREIIEAMLKAYQQKLFVTHTVDEYGRKKRRQRRR [helix 5 TAT-peptide],–,–,18%
